Reference: patent publication US10640545B2 (THE GOVERNORS OF THE UNIVERSITY OF ALBERTA, priority 2017, dated 2020)
Where a SMILES comes first, the peptide text is derived from it. [ ]: non-standard residue; d: D form. Phe(4-Br) = N[C@@H](Cc1ccc(Br)cc1)C(=O)O; NMeL = CN[C@@H](CC(C)C)C(=O)O; Nle = CCCC[C@H](N)C(=O)O; Aib = CC(C)(N)C(=O)O

What was measured:
neprilysin (NEP) = neprilysin (NEP) (Homo sapiens, UniProt P08473); assay: in vitro; settings: human, pH 7.5
isolated rat hearts = assay: Langendorff isolated heart, ischemia-reperfusion injury; settings: ex vivo heart, 30 min ischemia
[1] = target: Human plasma kallikrein KLKB1 (Homo sapiens, UniProt P03952); assay: Plasma kallikrein KLKB1 qualitative cleavage assay (MALDI-TOF); settings: KLKB1, 37° C., first degradation products by MALDI-TOF
Description: Native apelin-17 (2) and apelin peptides 5, 56, 57, 58 and 59 were dissolved in Milli-Q water (1 mM). Human plasma kallikrein KLKB1 were each reconstituted in Tris buffer (100 mM TrisHCl, 10 mM CaCl2), 150 mM NaCl) and diluted with Tris buffer (50 mM TrisHCl, 250 mM NaCl) to give a KLKB1 concentration of […]. The KLKB1 enzyme was then preincubated at 37° C. for 10 minutes prior to the addition of 5 μL of apelin peptide (1 mM). Aliquots (1 μL) were taken at 1, 2, 4, 6, 12, 24, 36, and 48 hours and analyzed with MALDI-TOF mass spectrometry to qualitatively determine the time point at which degradation products could be observed (Table 4).

NEP [2] = target: T1, NEP (Homo sapiens, UniProt P08473); assay: Neprilysin degradation assay (LC-MS, quantitative); settings: 37° C.
[3] = In vitro peptide stability in human blood plasma (RP-HPLC)
NEP [4] = target: T1, NEP; assay: Kinetic parameters for NEP cleavage; type: biochemical; set-up: purchased Sino Biological; settings: enzyme NEP

T1 sequence (P08473 whole entry): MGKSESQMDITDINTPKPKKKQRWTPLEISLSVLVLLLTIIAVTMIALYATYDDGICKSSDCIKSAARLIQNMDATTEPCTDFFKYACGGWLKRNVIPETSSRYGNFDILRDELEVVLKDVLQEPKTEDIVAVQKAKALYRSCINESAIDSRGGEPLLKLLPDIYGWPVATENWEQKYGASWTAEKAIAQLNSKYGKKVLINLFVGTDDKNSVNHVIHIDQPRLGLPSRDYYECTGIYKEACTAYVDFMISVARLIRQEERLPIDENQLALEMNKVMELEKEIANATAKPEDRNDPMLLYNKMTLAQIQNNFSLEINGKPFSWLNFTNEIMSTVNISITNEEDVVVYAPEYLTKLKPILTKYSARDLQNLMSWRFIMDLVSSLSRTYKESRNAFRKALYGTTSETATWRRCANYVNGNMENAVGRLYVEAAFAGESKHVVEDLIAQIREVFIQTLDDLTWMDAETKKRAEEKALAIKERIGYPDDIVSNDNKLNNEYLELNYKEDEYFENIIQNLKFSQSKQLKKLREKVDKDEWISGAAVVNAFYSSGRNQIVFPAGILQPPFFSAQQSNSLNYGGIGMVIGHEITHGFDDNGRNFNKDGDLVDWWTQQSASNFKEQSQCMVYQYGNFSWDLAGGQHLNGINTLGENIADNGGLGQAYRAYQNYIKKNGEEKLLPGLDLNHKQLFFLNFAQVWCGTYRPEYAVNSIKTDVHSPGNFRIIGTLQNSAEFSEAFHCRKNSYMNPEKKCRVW
Human plasma kallikrein KLKB1, sequence (P03952 20-638): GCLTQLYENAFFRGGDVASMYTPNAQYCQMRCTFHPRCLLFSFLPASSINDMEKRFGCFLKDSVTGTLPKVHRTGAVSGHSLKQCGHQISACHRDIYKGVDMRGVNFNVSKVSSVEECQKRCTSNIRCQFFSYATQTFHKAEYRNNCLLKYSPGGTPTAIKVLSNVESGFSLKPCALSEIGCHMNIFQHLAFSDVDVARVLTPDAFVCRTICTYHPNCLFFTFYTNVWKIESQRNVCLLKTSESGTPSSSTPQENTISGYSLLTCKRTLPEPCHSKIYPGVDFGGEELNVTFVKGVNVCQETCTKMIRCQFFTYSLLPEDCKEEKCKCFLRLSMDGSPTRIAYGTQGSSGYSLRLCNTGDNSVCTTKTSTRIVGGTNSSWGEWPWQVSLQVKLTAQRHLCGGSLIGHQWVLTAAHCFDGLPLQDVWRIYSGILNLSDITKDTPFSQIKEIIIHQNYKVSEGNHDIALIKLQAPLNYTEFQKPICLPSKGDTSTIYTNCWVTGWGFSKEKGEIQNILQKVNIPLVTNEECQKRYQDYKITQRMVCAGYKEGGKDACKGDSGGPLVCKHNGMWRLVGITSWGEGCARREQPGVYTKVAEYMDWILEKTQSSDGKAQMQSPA
neprilysin (NEP), sequence (P08473 whole entry, the tested form may be a part): as the sequence (P08473 whole entry) above

Row | SMILES | half-life (neprilysin (NEP)) [min] | ability to rescue the heart from ischemic reperfusion injury (isolated rat hearts; peptide at start of reperfusion for 10 min at 1 pM) | max/min dP/dt, LVDP and RPP compared to native isoform 2 (isolated rat hearts; reperfusion) | Degradation Onset Timepoint with KLKB1 [1] [min] | t1/2 (rhNEP, h) (NEP [2]; rhNEP 3.1 nM) [h] | in vitro NEP proteolytic stability (in words) (NEP [2]; rhNEP, up to 72 h, LC-MS) | remaining at 0.5 h, 80 µM ([3]; human blood plasma) [%] | remaining at 1 h, 80 µM ([3]; human blood plasma) [%] | t1/2 (hplasma, h) ([3]; plasma) [h] | Km (NEP [4]) [µM] | kcat (NEP [4]) [s⁻¹]
1 | CCCC[C@H](NC(=O)[C@@H]1CCCN1C(=O)CNC(=O)[C@H](CCCCN)NC(=O)[C@H](Cc1c[nH]cn1)NC(=O)[C@H](CO)NC(=O)[C@H](CC(C)C)N(C)C(=O)[C@H](CCCNC(=N)N)NC(=O)[C@@H]1CCCN1C(=O)[C@H](CCCNC(=N)N)NC(=O)[C@H](CCC(N)=O)NC(=O)[C@H](CCCNC(=N)N)NC(=O)[C@H](CCCNC(=N)N)NC(=O)[C@H](Cc1ccccc1)NC(=O)[C@@H](N)CCCCN)C(=O)NC(C)(C)C(=O)N[C@@H](Cc1ccc(Br)cc1)C(=O)O [Peptide 11] (H-KFRRQRPR[NMeL]SHKGP[Nle][Aib][Phe(4-Br)]-OH; C-terminus assumed) | > 1800 | equivalent ability to rescue the heart from ischemic reperfusion injury compared to native isoform 2 | slight improvement over the native isoform | – | – | – | – | – | – | – | –
2 | CSCC[C@H](NC(=O)[C@@H]1CCCN1C(=O)CNC(=O)[C@H](CCCCN)NC(=O)[C@H](Cc1cnc[nH]1)NC(=O)[C@H](CO)NC(=O)[C@H](CC(C)C)NC(=O)[C@H](CCCNC(=N)N)NC(=O)[C@@H]1CCCN1C(=O)[C@H](CCCNC(=N)N)NC(=O)[C@H](CCC(N)=O)NC(=O)[C@H](CCCNC(=N)N)NC(=O)[C@H](CCCNC(=N)N)NC(=O)[C@H](Cc1ccccc1)NC(=O)[C@@H](N)CCCCN)C(=O)N1CCC[C@H]1C(=O)N[C@@H](Cc1ccccc1)C(=O)O [Peptide 2, reference compound] | – | – | – | <30 | 0.4 | degraded by NEP at rates comparable to those previously reported | 51 ± 17 | 39 ± 7 | 0.02 | 190 ± 40 | 3.4 ± 0.3
